In patent US10449128B2, “Fibrous support comprising particles containing a partially water-soluble active agent, particles, and methods for producing said particles” (priority 2014, dated 2019):

Experiment: Solubility in water
Format: physicochemical
Source text: For the solid compounds, the solubility is defined as the percentage by weight of the compound in a solution at equilibrium with the solid phase at the above temperature T and a pressure of one atmosphere. For the liquid compounds (or solids in the pure state), the aqueous mixtures of which separate into two or more phases, the solubility taken into account is the percentage by weight of the specified compound in the water-rich liquid phase at equilibrium at the operating temperature (temperature at which said particles are manufactured (as the case may be, between 20 and 95° C.)) and a pressure of one atmosphere.

Row | solubility in water (at 25° C.) | solubility in water (temperature not stated) | solubility in water (at 20° C.) | SMILES
1 | 30 % by weight | 39% | – | OC[C@@H](O)[C@H](O)[C@@H](O)CO [xylitol]
2 | – | – | approximately 7 % by weight | CCCCN(CCC(=O)OCC)C(C)=O [IR3535, ethyl 3-[acetyl(butyl)amino]propanoate, reference compound]
